Results taken from patent US5114934A, “Tricyclic pyridone derivatives” (Hoffman-La Roche, Inc., priority 1985, dated 1992).

What was measured:
[1] = tested on: spasmodic seizures caused by pentetrazole; assay: antipentetrazole test (mice, oral); type: in vivo; details: Mus musculus, 0.5 h, 30 minutes before 120 mg/kg pentetrazole i.p., dosage protecting 50% of animals, Probit method
Protocol: As mentioned earlier, the compounds of formula I have valuable pharmacological properties. In particular they display pronounced muscle relaxant, sedative-hypnotic, anticonvulsive and/or anxiolytic properties and have only a low toxicity.
(§1) In this animal experiment the compound under investigation is administered orally to mice and 30 minutes later there are administered intraperitoneally 120 mg/kg of pentetrazole, which causes emprosthotonus and tonic stretchings of the fore and/or hind limbs in unprotected animals 1-4 minutes after the injection. 10 experimental animals are used per dosage of test substance. After counting the protected experimental animals the ED50 is determined according to the Probit method. The ED50 is that dosage which protects 50% of the experimental animals from the spasmodic seizures caused by pentetrazole. The results which have been obtained with representative members of the class of compound defined by formula I in the experiment described previously are compiled in the following Table. Moreover, the Table contains data concerning the acute toxicity (LD50) of some of these compounds in mg/kg in the case of single oral administration to mice.

[2] = acute toxicity (LD50), single oral administration to mice; details: mouse, in vivo
Protocol: as §1

Structure (SMILES)	ED50 [1] [mg/kg]	LD50 [2] [mg/kg]
COC1CN(C(=O)c2cc(-c3ccccc3)c(=O)n3ncc4ccccc4c23)C1 [Compound A, 3-methoxy-1-[(4-oxo-3-phenyl-4H-pyrido-[2,1-a]phthalazin-1-yl)carbonyl]azetidine]	1.1	1500
COC1CN(C(=O)c2cc(-c3ccccc3)c(=O)n3ncc4ccc(Cl)cc4c23)C1 [Compound F, 1-[(10-Chloro-4-oxo-3-phenyl-4H-pyrido[2,1-a]-phthalazin-1-yl)carbonyl]-3-methoxyazetidine]	0.79	5000
CN(C)C(=O)c1cc(-c2ccccc2)c(=O)n2ncc3ccc(Cl)cc3c12 [Compound G, N,N-Dimethyl-10-chloro-4-oxo-3-phenyl-4H-pyrido[2,1-a]phthalazine-1-carboxamide]	0.08	5000
CCN(CC)C(=O)c1cc(-c2ccccc2)c(=O)n2ncc3ccc(Cl)cc3c12 [Compound H, N,N-Diethyl-10-chloro-4-oxo-3-phenyl-4H-pyrido[2,1-a]phthalazine-1-carboxamide]	0.66	> 4000
COC1CN(C(=O)c2cc(-c3ccccc3)c(=O)n3ncc4ccsc4c23)C1 [Compound M, 3-Methoxy-1-[(7-oxo-8-phenyl-7H-pyrido-[1,2-b]thieno[2,3-d]pyridazin-10-yl)carbonyl]-azetidine]	0.83	5000
